{"source": "patent US20190038602A1", "about": "“GRANZYME B INHIBITOR FORMULATIONS AND METHODS FOR THE TREATMENT OF BURNS” (viDA Therapeutics, Inc., priority 2016, published 2019)", "key": {"[1]": {"experiment": "Compound A concentration at saturation in penetration enhancer vehicles (UPLC)", "format": "physicochemical", "method": "Compound A was dissolved at saturation in various vehicles containing PE in pH 5 acetate buffer (see Table 2). An excess amount of Compound A and the corresponding vehicle were mixed by rotary mixer at room temperature for 24 hours and subsequent filtration through 0.22 μm cellulose acetate membrane. Concentration of Compound A was measured by UPLC."}, "[2]": {"experiment": "Ex vivo pig ear skin permeation, Franz Diffusion Cell System", "format": "in vitro ADME", "details": "for Compound A in tape-stripped skin samples, Average: n=3; for Skin concentration (Compound A in tape-stripped skin, single replicates): listed as Compound A", "method": "[…] Formulations were delivered to the skin over a period of 6 hours and drug permeation was assessed by UPLC-MS/MS analysis of tape-stripped skin and receptor fluid. Receptor fluid samples were collected for analysis at 3 and 6 hour time points.\nCompound A permeation through skin was assessed ex vivo by using pig ear skin and a Franz Diffusion Cell System (PermeGear®).\nFresh pig ears were obtained from female Yorkshire/Landrace crosses, between 3.5-5 months old, at Jack Bell Research Centre, Vancouver. Immediately after surgery, pig ears were removed and placed in a double Ziploc® bag and stored at −20° C. freezer until shipment to laboratory site on ice via courier the next day. Upon arrival at the site, pig ears were stored in a segregated container, labeled with harvest and shipment date, in −20° C. freezer and were used prior to their expiry date of 5 weeks. Pig skin was prepared according to “Preparation of Pig Skin Samples for ex vivo Permeation Assays.” Briefly, one day prior to the study, frozen ears were thawed washed with deionized water and blotted dry. After trimming off hair, surface skin was separated from cartilage and fat, and hole-punched into coin shape samples to fit dimensions of Franz cells. Pig ear samples were stored in a petri dish, sealed with parafilm tape, in double Ziploc® bags at −20° C. overnight prior to the study on the following day.\nSet up of the diffusion cell system was performed according to “Setup, Operation and Cleaning Procedure for Franz Diffusion Cell System.” Prior to application of formulations, skin integrity of each skin sample was determined by measuring the electrical resistance. The electrical resistance was measured with a Model 878B Dual Display LCR Meter (BK Precision®) connected to two stainless steel electrodes, using a setting of 1 KHz. Measurements were taken at least 30 minutes after mounting skin samples to ensure temperature and humidity equilibration. The donor and receptor chamber were filled with 300 μL and 5 mL of pH 7.4 phosphate buffered saline (PBS), respectively, and both electrodes were immersed in solution without touching the skin membrane. Any skin membrane giving an electrical resistance below 4.0 kΩ was discarded and replaced.\nThroughout the permeation assay, all cells were maintained at 32° C. and sink condition was maintained in the receptor fluid. Receptor chambers were filled with 4.75 mL of receptor fluid (pH 7.4 PBS) and were kept stirring for the entire duration of the experiment. Skin samples were mounted above the receptor chamber, in direct contact with the receptor fluid, and then donor chambers were mounted above the skin. Any air bubbles between the skin tissue and the receptor fluid were carefully removed prior to application of formulations. The appropriate formulation (300 μL) was added to the donor chamber and the opening of the cell was covered with Parafilm® to prevent evaporation of the test article. Three skin samples per formulation (N) were tested. Three components (receptor fluid, applied formulation and skin samples) were sampled for subsequent analysis. Receptor fluid was sampled at 3 and 6 hours (without volume replacement) and stored at −20° C. until analysis. At the end of the experiment, the applied formulation was recovered from the donor chamber and recorded as the unabsorbed dose. The skin was then blotted dry with a Kimwipe® and tape-stripped skin (12 tape strips) was obtained. The first tape strip (3M scotch tape) was used to remove excess of formulation remaining on the skin and was discarded. Then a total of 11 tape strips were used to partially remove the stratum corneum. These tape strips were kept in labeled glass vial. Then using a hole-puncher the section of skin exposed to the formulation was removed and the corresponding weight of the skin sample was recorded. All samples were stored at −20° C. until analysis. […]"}, "burn wound": {"tested_on": "burn wound", "experiment": "Burn wound healing in mice (deep partial thickness thermal injury, degree IIb)", "format": "in vivo", "method": "In the studies described herein, all mice were initially anesthetized using mixture of isoflurane/oxygen (Iso about 2-2.5%/oxygen flow rate of about 1.5-2 L/min) in an induction chamber, then moved to a Baines system with a 1-2.5%/1.5-2 L/min flow rate. During anesthesia the mice were placed on a warming pad with a nose cone over the mice to maintain the anesthetic state. The toe nails were trimmed with clippers. A metal rod (25 g, 1 cm in diameter) was heated to 95-100° C. by submersion in boiling water for 3-5 min. The rod was immediately positioned vertically for 6 seconds without additional pressure on the dorsal skin of mice that had also been depilated 3 days before wounding. This procedure induces a deep partial thickness thermal injury (degree IIb). The severity of the thermal injury is classified according to Exp Dermatol. 2010; 19(9):777-783."}, "[3]": {"experiment": "Concentration of Compound A in skin after application of gel (FIG. 3B)", "details": "50 μL gel, 0.35% w/v Compound A", "method": "FIG. 3A is an image of skin to which a volume (50 μL) of a representative formulation of the invention that includes Compound A was applied. The applied formulation (gel) includes Compound A at a concentration of 0.35% w/v in a vehicle containing propylene glycol (20% w/w), Carbopol 940 (0.5% w/v), methyl paraben (0.2% w/w), propyl paraben (0.02% w/w) and acetate buffer pH 5 (QS). Triethylamine was used to adjust the final formulation pH to 5-6.\n(§1) FIG. 3B compares concentration of Compound A (μg/μL) in the skin at 4, 6, and 24 hours after application of a volume (50 μL) of a representative formulation of the invention that includes Compound A as described above for FIG. 3A.\nas §1, with “FIG. 3A is an image of skin to which a volume (50 μL) of a representative formulation of the invention that includes Compound A was applied. FIG. 3B” for “FIG. 3B”"}}, "note": "Several values for one entry are separate records, joined by “and”; a condition that tells them apart may be missing. Identical values can stand only once.", "data": [{"smiles": "CC[C@H](C)[C@H](NC(=O)CCC(=O)O)C(=O)NCC(=O)N1C(=O)N(C2CCCCC2)C[C@H]1C(=O)NCc1nn[nH]n1", "note": "[Compound C2, 4-(((2S,3S)-1-((2-((S)-5-(((2H-tetrazol-5-yl)methyl)carbamoyl)-3-cyclohexyl-2-oxoimidazolidin-1-yl)-2-oxoethyl)amino)-3-methyl-1-oxopentan-2-yl)amino)-4-oxobutanoic acid]", "values": [{"measurement": "Compound A Concentration in Formulation", "setting": "[1]; Water + 20% N-methyl-2-pyrollidone (NMP)", "value": 1.13, "unit": "mg/mL"}, {"measurement": "Compound A Concentration in Formulation", "setting": "[1]; pH5 acetate buffer + 10% Transcutol (TC)", "value": 2.99, "unit": "mg/mL"}, {"measurement": "Compound A Concentration in Formulation", "setting": "[1]; pH5 acetate buffer + 10% dimethylisosorbide (DMI)", "value": 3.18, "unit": "mg/mL"}, {"measurement": "Compound A Concentration in Formulation", "setting": "[1]; pH5 acetate buffer + 10% urea", "value": 3.04, "unit": "mg/mL"}, {"measurement": "Compound A Concentration in Formulation", "setting": "[1]; pH5 acetate buffer + 15% TWEEN 80", "value": 1.56, "unit": "mg/mL"}, {"measurement": "Compound A Concentration in Formulation", "setting": "[1]; pH5 acetate buffer + 20% propylene glycol (PG), room temperature 24 hours", "value": 2.82, "unit": "mg/mL"}, {"measurement": "Compound A in tape-stripped skin samples, Average", "setting": "[2]; Water + 20% N-methyl-2-pyrollidone (NMP), 6 hour exposure", "value": 4846, "unit": "ng/g"}, {"measurement": "Skin concentration (Compound A in tape-stripped skin, single replicates)", "setting": "[2]; Water + 20% NMP, 6 h exposure", "value": "4313 ng/g and 4985 ng/g and 5241 ng/g"}, {"measurement": "Skin concentration (Compound A in tape-stripped skin, single replicates)", "setting": "[2]; pH5 acetate buffer + 10% DMI, 6 h exposure", "value": "13975 ng/g and 6214 ng/g and 6311 ng/g"}, {"measurement": "Compound A in tape-stripped skin samples, Average", "setting": "[2]; pH5 acetate buffer + 10% Dimethyl Isosorbide (DMI), 6 hour exposure", "value": 8833, "unit": "ng/g"}, {"measurement": "Skin concentration (Compound A in tape-stripped skin, single replicates)", "setting": "[2]; pH5 acetate buffer + 10% TC, 6 h exposure", "value": "5869 ng/g and 8886 ng/g and 1629 ng/g"}, {"measurement": "Compound A in tape-stripped skin samples, Average", "setting": "[2]; pH5 acetate buffer + 10% Transcutol (TC), 6 hour exposure", "value": 5461, "unit": "ng/g"}, {"measurement": "Skin concentration (Compound A in tape-stripped skin, single replicates)", "setting": "[2]; pH5 acetate buffer + 10% Urea, 6 h exposure", "value": "5588 ng/g and 19422 ng/g and 2943 ng/g"}, {"measurement": "Compound A in tape-stripped skin samples, Average", "setting": "[2]; pH5 acetate buffer + 10% Urea, 6 hour exposure", "value": 9317, "unit": "ng/g"}, {"measurement": "Skin concentration (Compound A in tape-stripped skin, single replicates)", "setting": "[2]; pH5 acetate buffer + 15% Tw80, 6 h exposure", "value": "4937 ng/g and 1968 ng/g and 4442 ng/g"}, {"measurement": "Compound A in tape-stripped skin samples, Average", "setting": "[2]; pH5 acetate buffer + 15% Tween 80, 6 hour exposure", "value": 3782, "unit": "ng/g"}, {"measurement": "Skin concentration (Compound A in tape-stripped skin, single replicates)", "setting": "[2]; pH5 acetate buffer + 20% PG, 6 h exposure", "value": "4785 ng/g and 10012 ng/g and 6515 ng/g and 4784 ng/g"}, {"measurement": "Compound A in tape-stripped skin samples, Average", "setting": "[2]; pH5 acetate buffer + 20% Propylene Glycol (PG), 6 hour exposure", "value": 7104, "unit": "ng/g"}, {"measurement": "Average skin concentrations", "setting": "[2]; tape-stripped skin, 6 hours, span over the six formulations", "value": "3700 to 9300", "unit": "ng/g"}, {"measurement": "Burn wound healing (percent of original wound size, falling of scabs)", "setting": "burn wound; subcutaneous injection, solution in PBS 0.56 mg/ml, vs saline, Day 0 to Day 30", "value": "attenuation of initial burn expansion in the zone of stasis and improved burn wound healing"}, {"measurement": "Quality of healed wound (epidermal thickness, decorin level, collagen level)", "setting": "burn wound; topical gel", "value": "improves quality of healed wound"}, {"measurement": "Burn wound healing (percent of original wound size, falling of scabs)", "setting": "burn wound; topical gel vs saline control", "value": "attenuation of initial burn expansion in the zone of stasis and improved burn wound healing"}, {"measurement": "Burn wound healing (percent of original wound size)", "setting": "burn wound; topical gel vs vehicle control, repeated study, Day 0 to Day 24", "value": "attenuation of initial burn expansion in the zone of stasis and improved burn wound healing"}, {"measurement": "Stability and retention in skin (concentration at 4, 6 and 24 hours)", "setting": "[3]", "value": "stable and effectively retained in the skin"}]}, {"smiles": "CC[C@H](C)[C@H](NC(=O)CCC(=O)O)C(=O)NCC(=O)N1C(=O)N(C2CCCCC2)C[C@H]1C(=O)NCc1nn[nH]n1", "note": "[Compound 1A, 4-(((2S,3S)-1-((2-((S)-5-(((2H-tetrazol-5-yl)methyl)carbamoyl)-3-cyclohexyl-2-oxoimidazolidin-1-yl)-2-oxoethyl)amino)-3-methyl-1-oxopentan-2-yl)amino)-4-oxobutanoic acid]", "values": [{"measurement": "In vivo performance of gel", "setting": "burn wound; 3.6 mg/mL gel, pH 6.0 with triethanolamine, compared with Compound 1 gel (triethylamine)", "value": "performance comparable to that of another representative formulation"}]}]}
